From ChEMBL document CHEMBL5104202, “Structure-Uptake Relationship Studies of Oxazolidinones in Gram-Negative ESKAPE Pathogens” (J Med Chem, 2022)

How the values were obtained:
Format in all cases: functional, organism-based
Acinetobacter baumannii [1] = assay: Antibacterial activity against wild type Acinetobacter baumannii assessed as inhibition of bacterial growth
Acinetobacter baumannii [2] = assay: Antibacterial activity against recombinant OM pore producing Acinetobacter baumannii assessed as inhibition of bacterial growth
Pseudomonas aeruginosa [3] = assay: Antibacterial activity against efflux pump lacking/recombinant OM pore producing Pseudomonas aeruginosa assessed as inhibition of bacterial growth
Acinetobacter baumannii [4] = assay: Antibacterial activity against efflux pump lacking Acinetobacter baumannii assessed as inhibition of bacterial growth
Pseudomonas aeruginosa [5] = assay: Antibacterial activity against recombinant OM pore producing Pseudomonas aeruginosa assessed as inhibition of bacterial growth
Pseudomonas aeruginosa [6] = assay: Antibacterial activity against efflux pump lacking Pseudomonas aeruginosa assessed as inhibition of bacterial growth
Escherichia coli [7] = assay: Antibacterial activity against efflux pump lacking Escherichia coli assessed as inhibition of bacterial growth
Escherichia coli [8] = assay: Antibacterial activity against efflux pump lacking/recombinant OM pore producing Escherichia coli assessed as inhibition of bacterial growth
Escherichia coli [9] = assay: Antibacterial activity against wild type Escherichia coli assessed as inhibition of bacterial growth
Acinetobacter baumannii [10] = assay: Antibacterial activity against efflux pump lacking/recombinant OM pore producing Acinetobacter baumannii assessed as inhibition of bacterial growth
Pseudomonas aeruginosa [11] = assay: Antibacterial activity against wild type Pseudomonas aeruginosa assessed as inhibition of bacterial growth
Escherichia coli [12] = assay: Antibacterial activity against recombinant OM pore producing Escherichia coli assessed as inhibition of bacterial growth

Row | Structure (SMILES) | IC50 (Acinetobacter baumannii [1]) | IC50 (Acinetobacter baumannii [2]) | IC50 (Pseudomonas aeruginosa [3]) | IC50 (Acinetobacter baumannii [4]) | IC50 (Pseudomonas aeruginosa [5]) | IC50 (Pseudomonas aeruginosa [6]) | IC50 (Escherichia coli [7]) | IC50 (Escherichia coli [8]) | IC50 (Escherichia coli [9]) | IC50 (Acinetobacter baumannii [10]) | IC50 (Pseudomonas aeruginosa [11]) | IC50 (Escherichia coli [12])
1 | O=C1O[C@@H](CO)CN1c1ccc(C#Cc2cc(Cl)cc(Cl)c2)c(F)c1 | > 100 µM | > 100 µM | 16.2 µM | > 100 µM | > 100 µM | 64.9 µM | 26.1 µM | 3.6 µM | 74.8 µM | > 100 µM | > 100 µM | 12.8 µM
2 | CC(=O)OCC#Cc1ccc(N2C[C@H](CO)OC2=O)cc1F | > 100 µM | > 100 µM | > 100 µM | > 100 µM | > 100 µM | > 100 µM | 72.4 µM | 39.7 µM | > 100 µM | > 100 µM | > 100 µM | 44.4 µM
3 | COC(=O)c1cncc(-c2ccc(N3C[C@H](CO)OC3=O)cc2F)c1 | 83.2 µM | 83.2 µM | 38.7 µM | 12.1 µM | > 100 µM | 32.9 µM | 2.7 µM | 2.2 µM | > 100 µM | 12.1 µM | > 100 µM | 4.7 µM
4 | O=C1NCCN1CC#Cc1ccc(N2C[C@H](CO)OC2=O)cc1F | > 100 µM | > 100 µM | > 100 µM | > 100 µM | > 100 µM | > 100 µM | 64.3 µM | 39 µM | > 100 µM | > 100 µM | > 100 µM | > 100 µM
5 | O=C1O[C@@H](CO)CN1c1ccc(-c2cc(F)cc(F)c2)c(F)c1 | > 100 µM | > 100 µM | > 100 µM | > 100 µM | > 100 µM | > 100 µM | > 100 µM | > 100 µM | > 100 µM | > 100 µM | > 100 µM | > 100 µM
6 | O=C1O[C@@H](CO)CN1c1ccc(-c2ccccc2)c(F)c1 | 18.4 µM | 5.5 µM | 1.4 µM | 2.3 µM | 13.1 µM | 2.3 µM | 0.4 µM | 0.3 µM | 18.4 µM | 1.9 µM | > 100 µM | 2 µM
7 | COCC#Cc1ccc(N2C[C@H](CO)OC2=O)cc1F | > 100 µM | > 100 µM | > 100 µM | > 100 µM | > 100 µM | > 100 µM | 80.3 µM | 44 µM | 74.9 µM | > 100 µM | > 100 µM | 36.3 µM
8 | CCC[n+]1ccc(-c2ccc(N3C[C@H](CO)OC3=O)cc2F)cc1 | > 100 µM | 19.8 µM | > 100 µM | 89.7 µM | > 100 µM | > 100 µM | 12.7 µM | 16.6 µM | 43.9 µM | 19.8 µM | > 100 µM | 28.3 µM
9 | CC(O)c1ccc(OCC#Cc2ccc(N3C[C@H](CO)OC3=O)cc2F)cc1 (some centres not stated) | > 100 µM | > 100 µM | 91.3 µM | 61.9 µM | > 100 µM | > 100 µM | 30.2 µM | 13.5 µM | 62.4 µM | 34.7 µM | > 100 µM | 24.7 µM
10 | O=C1O[C@@H](CO)CN1c1ccc(-c2cnoc2)c(F)c1 | > 100 µM | > 100 µM | 32.9 µM | 83.4 µM | > 100 µM | 22.7 µM | 23.6 µM | 30.6 µM | > 100 µM | 83.4 µM | > 100 µM | 56.1 µM
11 | O=C1O[C@@H](CO)CN1c1ccc(-c2cc[n+](Cc3ccccc3)cc2)c(F)c1 | > 100 µM | 15.6 µM | 1.1 µM | 23.4 µM | 41.7 µM | 4.6 µM | 15.5 µM | 15.6 µM | 51.6 µM | 13 µM | > 100 µM | 23.3 µM
12 | NCC#Cc1ccc(N2C[C@H](CO)OC2=O)cc1F | > 100 µM | > 100 µM | > 100 µM | > 100 µM | > 100 µM | > 100 µM | > 100 µM | > 100 µM | > 100 µM | > 100 µM | > 100 µM | > 100 µM
13 | N=C(N)NCc1ccc(-c2ccc(N3C[C@H](CO)OC3=O)cc2F)cc1 | > 100 µM | 65.9 µM | 25.7 µM | 67.8 µM | > 100 µM | 12 µM | 63.8 µM | 55.7 µM | > 100 µM | 32.5 µM | > 100 µM | 56.1 µM
14 | Nc1cccc(C#Cc2ccc(N3C[C@H](CO)OC3=O)cc2F)n1 | > 100 µM | 49.8 µM | > 100 µM | 83.9 µM | > 100 µM | > 100 µM | 34.2 µM | 20.5 µM | 59 µM | 76.7 µM | > 100 µM | 19.2 µM
15 | O=C1O[C@@H](CO)CN1c1ccc(-c2ccc3ccncc3c2)c(F)c1 | > 100 µM | > 100 µM | 0.1 µM | > 100 µM | > 100 µM | > 100 µM | > 100 µM | > 100 µM | > 100 µM | > 100 µM | > 100 µM | > 100 µM
16 | CC(C(=O)NCC#Cc1ccc(N2C[C@H](CO)OC2=O)cc1F)N1CCN(C(=O)OC(C)(C)C)CC1 (some centres not stated) | > 100 µM | > 100 µM | > 100 µM | > 100 µM | > 100 µM | > 100 µM | 50.9 µM | 62.6 µM | > 100 µM | > 100 µM | > 100 µM | > 100 µM
17 | N[C@@H](Cc1cccc(-c2ccc(N3C[C@H](CO)OC3=O)cc2F)c1)C(=O)O | > 100 µM | > 100 µM | > 100 µM | > 100 µM | > 100 µM | > 100 µM | > 100 µM | > 100 µM | > 100 µM | > 100 µM | > 100 µM | > 100 µM
18 | C[n+]1ccccc1-c1ccc(-c2ccc(N3C[C@H](CO)OC3=O)cc2F)cc1 | > 100 µM | 13.3 µM | 1.2 µM | 20.4 µM | 15.9 µM | 8.4 µM | 3.1 µM | 4.4 µM | 72.6 µM | 10.2 µM | > 100 µM | 13.2 µM
19 | C[n+]1ccc2cc(-c3ccc(N4C[C@H](CO)OC4=O)cc3F)ccc2c1 | > 100 µM | 20.1 µM | > 100 µM | 29.7 µM | > 100 µM | > 100 µM | 4 µM | 11.4 µM | 63.6 µM | 27.9 µM | > 100 µM | 30 µM
20 | CSCC#Cc1ccc(N2C[C@H](CO)OC2=O)cc1F | > 100 µM | > 100 µM | > 100 µM | > 100 µM | > 100 µM | > 100 µM | 65.9 µM | 47.8 µM | 94.9 µM | > 100 µM | > 100 µM | 35.1 µM
21 | CCOC(=O)C1CCN(CC#Cc2ccc(N3C[C@H](CO)OC3=O)cc2F)CC1 | > 100 µM | > 100 µM | > 100 µM | > 100 µM | > 100 µM | > 100 µM | > 100 µM | > 100 µM | > 100 µM | > 100 µM | > 100 µM | > 100 µM
22 | O=C(O)CCCC#Cc1ccc(N2C[C@H](CO)OC2=O)cc1F | > 100 µM | > 100 µM | > 100 µM | > 100 µM | > 100 µM | > 100 µM | > 100 µM | > 100 µM | > 100 µM | > 100 µM | > 100 µM | > 100 µM
23 | O=C1O[C@@H](CO)CN1c1ccc(-c2cccc(S(=O)(=O)C(F)(F)F)c2)c(F)c1 | > 100 µM | > 100 µM | > 100 µM | 48.8 µM | > 100 µM | > 100 µM | 19.3 µM | 12.5 µM | > 100 µM | 38.5 µM | > 100 µM | 21.2 µM
24 | COc1ccc(-c2ccc(N3C[C@H](CO)OC3=O)cc2F)cc1 | > 100 µM | > 100 µM | 1.2 µM | 0.7 µM | > 100 µM | 0.7 µM | 0.2 µM | 0.3 µM | 23.3 µM | 0.6 µM | > 100 µM | 3.4 µM
25 | CC(C)(C)OC(=O)NCC#Cc1ccc(N2C[C@H](CO)OC2=O)cc1F | > 100 µM | > 100 µM | > 100 µM | > 100 µM | > 100 µM | > 100 µM | 83.4 µM | 64.7 µM | > 100 µM | > 100 µM | > 100 µM | 74.3 µM
26 | CC(C)(C)OC(=O)NC(CO)CC#Cc1ccc(N2C[C@H](CO)OC2=O)cc1F (some centres not stated) | > 100 µM | > 100 µM | > 100 µM | > 100 µM | > 100 µM | > 100 µM | 72.6 µM | 67.8 µM | > 100 µM | > 100 µM | > 100 µM | 97.3 µM
